Literature values as cited in US6635803B1, “Method to improve drought tolerance in plants” (Regents of the University of California, priority 1999, dated 2003).

What was measured:
[1] = test system: stomata
[2] = test system: K+in channel; conditions: 10 mM
[3] = test system: K+in channels in guard cells; conditions: cytosolic second messengers

| SMILES | final stomatal apertures [1] | block of K+in channel currents [2] [%] | effect on K+in channels [3] |
| --- | --- | --- | --- |
| [Ba+2] [Ba^2+] | does not affect | 90 |  |
| [Ca+2] [Ca^2+] |  |  | inhibit |
| Nc1nc2c(ncn2[C@@H]2O[C@H](COP(=O)(O)OP(=O)(O)OP(O)(O)=S)[C@@H](O)[C@H]2O)c(=O)[nH]1 [GTPγS] |  |  | inhibit |
| O=P(O)(O)O[C@@H]1[C@H](O)[C@H](O)[C@@H](OP(=O)(O)O)[C@H](OP(=O)(O)O)[C@H]1O [inositol-1,4,5-triphosphate] |  |  | inhibit |
